The values below come from patent publication US20250381243A1, “HETEROCYCLES AND USES THEREOF” (Kumquat Biosciences Inc., priority 2022, published 2025).

The subject of one test is A549 cells. The test can be described thus: Cell proliferation assay (CellTiter-Glo), cells with K-Ras G12S mutation. Type of test: cell-based. Conditions: Homo sapiens, 500 nM to 5 μM (mixed units), read-out: Inhibition of A549 Cells (IC50). How it is done: A549 (ATCC CRL-185) and LS123 (ATCC CRL-255) cell lines comprise a G12S mutation and can be used to assess Ras cellular signaling in vitro, e.g., in response to treatment with a compound described herein. A549 culture medium is prepared with RPMI-1640 and 10% heat-inactivated FBS. LS123 culture medium is prepared with RPMI-1640 and 10% heat-inactivated FBS. A CellTiter-Glo (CTG) luminescent based assay (Promega) is used to assess growth of the cells, as a measurement of the ability of the compounds herein to inhibit Ras signaling in the cells. The cells (e.g., 800 per well) are seeded in their respective culture medium in standard tissue culture-treated 384-well format plates (Falcon #08-772-116) or ultra-low attachment surface 384-well format plates (S-Bio #MS-9384WZ). The day after plating, cells are treated with a dilution series (e.g., a 10 point 3-fold dilution series) of the compounds herein (e.g., approximately 40 μl final volume per well). Cell viability can be monitored (e.g., approximately 6 days later) according to the manufacturer's recommended instructions, where CellTiter-Glo reagent is added (e.g., approximately 10 μl), vigorously mixed, covered, and placed on a plate shaker (e.g., approximately for 20 min) to ensure sufficient cell lysis prior to assessment of luminescent signal. The IC50 values are determined using the four parameter fit. The resulting IC50 value is a measurement of the ability of the test compound to reduce cell growth of Ras-driven cells (e.g., tumor cell lines) in vitro and/or in vivo.
In general, IC50 refers to the concentration that gives 50% inhibition. With `CC1CC(N(C)C(=O)n2cnc(Cl)n2)CN1c1nc(OC[C@@]23CCCN2C[C@H](F)C3)nc2c(F)c(-c3ccc(F)c4sc(N)c(C#N)c34)c(Cl)cc12` (single isomer, unassigned) [Compound 105], the IC50 fell in the range of 500 to 5000 nM.

For `CC1C2C(CCN2c2nc(OC[C@@]34CCCN3C[C@H](F)C4)nc3c(F)c(-c4ccc(F)c5sc(N)c(C#N)c45)c(Cl)cc23)CN1C(=O)n1cncn1` (single isomer, unassigned) [Compound 121], the IC50 lay within 500 to 5000 nM.

Turning to `CN(CC1(C)CCN1C(=O)n1cnc(Cl)n1)c1nc(OC[C@@]23CCCN2C[C@H](F)C3)nc2c(F)c(-c3ccc(F)c4sc(N)c(C#N)c34)c(Cl)cc12` (single isomer, unassigned) [Compound 183], the IC50 fell in the range of 500 to 5000 nM.

The same test, now with this note: Homo sapiens, ≤500 nM, read-out: Inhibition of A549 Cells (IC50).
`CC(C)[C@H]1N(C(=O)n2cnc(C(F)F)n2)C[C@]12CC[C@H](C)N(c1nc(OC[C@@]34CCCN3C[C@H](F)C4)nc3c(F)c(-c4ccc(F)c5sc(N)c(C#N)c45)c(Cl)cc13)C2` (atropisomer, axis not shown; (aS)) [Compound 109, (R)-2-amino-4-(6-chloro-4-((1R,4R,7S)-2-(3-(difluoromethyl)-1H-1,2,4-triazole-1-carbonyl)-1-isopropyl-7-methyl-2,6-diazaspiro[3.5]nonan-6-yl)-8-fluoro-2-(((2R,7aS)-2-fluorotetrahydro-1H-pyrrolizin-7a(5H)-yl)methoxy)quinazolin-7-yl)-7-fluorobenzo[b]thiophene-3-carbonitrile]: the IC50 was at most 500 nM.

For `CN(C[C@@H]1CN(C(=O)n2cnc(C#N)n2)[C@@H]1C1CCC1)c1nc(OC[C@@]23CCCN2C[C@H](F)C3)nc2c(F)c(-c3ccc(F)c4sc(N)c(C#N)c34)c(Cl)cc12` (atropisomer, axis not shown; (aS)) [Compound 150, 1-((2R,3R)-3-(((7-((R)-2-amino-3-cyano-7-fluorobenzo[b]thiophen-4-yl)-6-chloro-8-fluoro-2-(((2R,7aS)-2-fluorotetrahydro-1H-pyrrolizin-7a (5H)-yl)methoxy)quinazolin-4-yl)(methyl)amino)methyl)-2-cyclobutylazetidine-1-carbonyl)-1H-1,2,4-triazole-3-carbonitrile], the IC50 was at most 500 nM.

As for `CC(C)[C@@H]1[C@H](CN(C)c2nc(OC[C@@]34CCCN3C[C@H](F)C4)nc3c(F)c(-c4ccc(F)c5sc(N)c(C#N)c45)c(Cl)cc23)CN1C(=O)n1cnc(C#N)n1` (atropisomer, axis not shown; (aS)) [Compound 162, 1-((2R,3R)-3-(((7-((R)-2-amino-3-cyano-7-fluorobenzo[b]thiophen-4-yl)-6-chloro-8-fluoro-2-(((2R,7aS)-2-fluorotetrahydro-1H-pyrrolizin-7a (5H)-yl)methoxy)quinazolin-4-yl)(methyl)amino)methyl)-2-isopropylazetidine-1-carbonyl)-1H-1,2,4-triazole-3-carbonitrile], the IC50 is at most 500 nM.

For the compound `CCN(C(=O)n1cnc(Cl)n1)[C@@H]1CCN(c2nc(OC[C@@]34CCCN3C[C@H](F)C4)nc3c(F)c(-c4ccc(F)c5sc(N)c(C#N)c45)c(Cl)cc23)[C@@H]1C` (atropisomer, axis not shown; (aS)) [Compound 176, N-((2R,3R)-1-(7-((R)-2-amino-3-cyano-7-fluorobenzo[b]thiophen-4-yl)-6-chloro-8-fluoro-2-(((2R,7aS)-2-fluorotetrahydro-1H-pyrrolizin-7a (5H)-yl)methoxy)quinazolin-4-yl)-2-methylpyrrolidin-3-yl)-3-chloro-N-ethyl-1H-1,2,4-triazole-1-carboxamide], the IC50 was at most 500 nM.

Turning to `C[C@H]1CC[C@]2(CN(C(=O)n3cnc(C(F)F)n3)[C@@H]2C2(C)CC2)CN1c1nc(OC[C@@]23CCCN2C[C@H](F)C3)nc2c(F)c(-c3ccc(F)c4sc(N)c(C#N)c34)c(Cl)cc12` (atropisomer, axis not shown; (aS)) [Compound 178, (R)-2-amino-4-(6-chloro-4-((1R,4R,7S)-2-(3-(difluoromethyl)-1H-1,2,4-triazole-1-carbonyl)-7-methyl-1-(1-methylcyclopropyl)-2,6-diazaspiro[3.5]nonan-6-yl)-8-fluoro-2-(((2R,7aS)-2-fluorotetrahydro-1H-pyrrolizin-7a (5H)-yl)methoxy)quinazolin-7-yl)-7-fluorobenzo[b]thiophene-3-carbonitrile], the IC50 is at most 500 nM.

Regarding `CC1([C@H]2N(C(=O)n3cnc(F)n3)C[C@]23CCCCN(c2nc(OC[C@@]45CCCN4C[C@H](F)C5)nc4c(F)c(-c5ccc(F)c6sc(N)c(C#N)c56)c(Cl)cc24)C3)CC1` (atropisomer, axis not shown; (aS)) [Compound 193, (R)-2-amino-4-(6-chloro-8-fluoro-4-((1R,4R)-2-(3-fluoro-1H-1,2,4-triazole-1-carbonyl)-1-(1-methylcyclopropyl)-2,6-diazaspiro[3.6]decan-6-yl)-2-(((2R,7aS)-2-fluorotetrahydro-1H-pyrrolizin-7a (5H)-yl)methoxy)quinazolin-7-yl)-7-fluorobenzo[b]thiophene-3-carbonitrile], the IC50 was at most 500 nM.

Regarding `C[C@H]1CC[C@]2(CN(C(=O)n3cnc(F)n3)[C@@H]2C2(C(F)F)CC2)CN1c1nc(OC[C@@]23CCCN2C[C@H](F)C3)nc2c(F)c(-c3ccc(F)c4sc(N)c(C#N)c34)c(Cl)cc12` (atropisomer, axis not shown; (aS)) [Compound 194, (R)-2-amino-4-(6-chloro-4-((1S,4R,7S)-1-(1-(difluoromethyl)cyclopropyl)-2-(3-fluoro-1H-1,2,4-triazole-1-carbonyl)-7-methyl-2,6-diazaspiro[3.5]nonan-6-yl)-8-fluoro-2-(((2R,7aS)-2-fluorotetrahydro-1H-pyrrolizin-7a(5H)-yl)methoxy)quinazolin-7-yl)-7-fluorobenzo[b]thiophene-3-carbonitrile], the concentration for half-maximal inhibition (IC50) was at most 500 nM.

On to `CC(C)C1N(C(=O)n2cnc(Cl)n2)CC12CC(CC#N)CN(c1nc(OC[C@@]34CCCN3C[C@H](F)C4)nc3c(F)c(-c4ccc(F)c5sc(N)c(C#N)c45)c(Cl)cc13)C2` (single isomer, unassigned) [Compound 117], for which the half-maximal inhibitory concentration (IC50) was at most 500 nM.

`CCN(C(=O)n1cnc(Cl)n1)[C@@H]1CCN(c2nc(OC[C@@]34CCCN3C[C@H](F)C4)nc3c(F)c(-c4ccc(F)c5sc(N)c(C#N)c45)c(Cl)cc23)[C@@H]1C` (single isomer, unassigned) [Compound 171]: the IC50 is at most 500 nM.

With `CN(C(=O)n1cnc(Cl)n1)C1CCN(c2nc(OC[C@@]34CCCN3C[C@H](F)C4)nc3c(F)c(-c4ccc(F)c5sc(N)c(C#N)c45)c(Cl)cc23)C1(C)C` (single isomer, unassigned) [Compound 198], the IC50 is at most 500 nM.

As to `N#Cc1c(N)sc2c(F)ccc(-c3c(Cl)cc4c(N5CCC6(C5)CN(C(=O)n5cncn5)C6C5CC5)nc(OC[C@@]56CCCN5C[C@H](F)C6)nc4c3F)c12` (single isomer, unassigned) [Compound 203], the IC50 is at most 500 nM.

On to `CC(C)[C@H]1N(C(=O)n2cncn2)C[C@@]12CN(c1nc(OC[C@@]34CCCN3C[C@H](F)C4)nc3c(F)c(-c4ccc(F)c5sc(N)c(C#N)c45)c(Cl)cc13)CCO2` [Compound 104, 2-amino-4-(6-chloro-8-fluoro-2-(((2R,7aS)-2-fluorotetrahydro-1H-pyrrolizin-7a(5H)-yl)methoxy)-4-((1R,4S)-1-isopropyl-2-(1H-1,2,4-triazole-1-carbonyl)-5-oxa-2,8-diazaspiro[3.5]nonan-8-yl)quinazolin-7-yl)-7-fluorobenzo[b]thiophene-3-carbonitrile], for which the IC50 is at most 500 nM.

For `CN(C[C@@H]1CN(C(=O)n2cnc(F)n2)[C@@H]1C1(CC#N)CC1)c1nc(OC[C@@]23CCCN2C[C@H](F)C3)nc2c(F)c(-c3ccc(F)c4sc(N)c(C#N)c34)c(Cl)cc12` [Compound 108, 2-amino-4-(6-chloro-4-((((2S,3R)-2-(1-(cyanomethyl)cyclopropyl)-1-(3-fluoro-1H-1,2,4-triazole-1-carbonyl)azetidin-3-yl)methyl)(methyl)amino)-8-fluoro-2-(((2R,7aS)-2-fluorotetrahydro-1H-pyrrolizin-7a(5H)-yl)methoxy)quinazolin-7-yl)-7-fluorobenzo[b]thiophene-3-carbonitrile], the IC50 was at most 500 nM.

`C[C@@H]1[C@H](N(C)C(=O)n2cnc(F)n2)CCN1c1nc(OC[C@@]23CCCN2C[C@H](F)C3)nc2c(F)c(-c3ccc(F)c4sc(N)c(C#N)c34)c(Cl)cc12` [Compound 111, N-((2R,3R)-1-(7-(2-amino-3-cyano-7-fluorobenzo[b]thiophen-4-yl)-6-chloro-8-fluoro-2-(((2R,7aS)-2-fluorotetrahydro-1H-pyrrolizin-7a(5H)-yl)methoxy)quinazolin-4-yl)-2-methylpyrrolidin-3-yl)-3-fluoro-N-methyl-1H-1,2,4-triazole-1-carboxamide]: the IC50 was at most 500 nM.
